In patent US20080176854A1, “Nitro-Substituted Phenyl-Piperazine Compounds, Their Preparation and Use in Medicaments” (Laboratorios Del Dr. Esteve S.A, priority 2004, published 2008):

Target: T1, 5HT6-human recombinant receptor (Homo sapiens, UniProt P50406)
T1 construct: purchased Receptor Biology; host or cells: HEK-293 cell membranes
Experiment: Binding to serotonin receptor 5-HT6 ([3H]-LSD radioligand displacement)
Conditions: membranes of HEK-293 cells expressing the receptor; radioligand [3H]-LSD 2.7 nM; 60 minutes at 37° C; triplicate
Method: I) Binding to Serotonin Receptor 5-HT6
Cell membranes of HEK-293 cells expressing the 5HT6-human recombinant receptor were supplied by Receptor Biology. In said membranes the receptor concentration is 2.18 pmol/mg protein and the protein concentration is 9.17 mg/ml. The experimental protocol follows the method of B. L. Roth et al. [B. L. Roth, S. C. Craigo, M. S. Choudhary, A. Uluer, F. J. Monsma, Y. Shen, H. Y. Meltzer, D. R. Sibley: Binding of Typical and Atypical Antipsychotic Agents to 5-Hydroxytryptamine-6 and Hydroxytryptamine-7 Receptors. The Journal of Pharmacology and Experimental Therapeutics, 1994, 268, 1403] with the following slight changes. The respective part of the literature description is hereby incorporated by reference and forms part of the disclosure.
The commercial membrane is diluted (1:40 dilution) with the binding buffer: 50 mM Tris-HCl, 10 mM MgCl2, 0.5 mM EDTA (pH 7.4). The radioligand used is [^3H]-LSD at a concentration of 2.7 nM with a final volume of 200 μl. Incubation is initiated by adding 100 μl of membrane suspension, (≈22.9 μg membrane protein), and is prolonged for 60 minutes at a temperature of 37° C. The incubation is ended by fast filtration in a Brandel Cell Harvester through fiber glass filters made by Schleicher & Schuell G F 3362 pretreated with a solution of polyethylenimine at 0.5%. The filters are washed three times with three milliliters of buffer Tris-HCl 50 mM pH 7.4. The filters are transferred to flasks and 5 ml of Ecoscint H liquid scintillation cocktail are added to each flask. The flasks are allowed to reach equilibrium for several hours before counting with a Wallac Winspectral 1414 scintillation counter. Non-specific binding is determined in the presence of 100 μM of serotonin. Tests were made in triplicate. The inhibition constants (Ki, nM) were calculated by non-linear regression analysis using the program EBDA/LIGAND described in Munson and Rodbard, Analytical Biochemistry, 1980, 107, 220, the respective part of which is hereby incorporated by reference and forms part of the disclosure.
The binding of the nitro-substituted phenyl-piperazine compounds to the 5-HT6 receptor was determined as described above.

T1 sequence (P50406 whole entry): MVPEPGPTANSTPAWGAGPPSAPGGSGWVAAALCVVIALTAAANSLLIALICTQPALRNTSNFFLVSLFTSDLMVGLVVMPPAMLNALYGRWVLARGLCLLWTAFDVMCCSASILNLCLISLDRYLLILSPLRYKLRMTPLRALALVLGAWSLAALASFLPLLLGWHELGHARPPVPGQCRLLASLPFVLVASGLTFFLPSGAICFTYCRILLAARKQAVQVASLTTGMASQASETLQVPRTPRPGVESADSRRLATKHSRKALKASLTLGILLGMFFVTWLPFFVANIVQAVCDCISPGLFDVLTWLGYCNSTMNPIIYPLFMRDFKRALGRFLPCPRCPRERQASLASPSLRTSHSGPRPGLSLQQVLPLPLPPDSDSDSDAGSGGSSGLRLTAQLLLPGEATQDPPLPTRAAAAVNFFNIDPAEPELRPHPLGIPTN

Row | Structure (SMILES) | Ki [µM]
1 | Cc1cc(C)n(-c2cc(N3CCN(C)CC3)ccc2[N+](=O)[O-])n1 [Example 21, 1-[3-(3,5-Dimethyl-pyrazol-1-yl)-4-nitro-phenyl]-4-methyl-piperazine] | 0.249
2 | CN1CCN(c2ccc([N+](=O)[O-])c(NCc3ccc(Cl)cc3)c2)CC1 [Example 56, (4-Chloro-benzyl)-[5-(4-methyl-piperazin-1-yl)-2-nitro-phenyl]-amine] | 0.059
3 | CN1CCN(c2ccc([N+](=O)[O-])c(N3CCOCC3)c2)CC1 [Example 15, 4-[5-(4-Methyl-piperazin-1-yl)-2-nitro-phenyl]-morpholine] | 2.71
4 | COc1ccccc1OCCNc1cc(N2CCN(C)CC2)ccc1[N+](=O)[O-] [Example 51, [2-(2-Methoxy-phenoxy)-ethyl]-[5-(4-methyl-piperazin-1-yl)-2-nitro-phenyl]-amine] | 0.0191
5 | CN1CCN(c2ccc([N+](=O)[O-])c(NC(c3ccccc3)c3ccccc3)c2)CC1 [Example 29, Benzhydryl-[5-(4-methyl-piperazin-1-yl)-2-nitro-phenyl]-amine] | 4.49
6 | CN1CCN(c2ccc([N+](=O)[O-])c(NCCOc3ccc(C(C)(C)C)cc3)c2)CC1 [Example 45, [2-(4-tert-Butyl-phenoxy)-ethyl]-[5-(4-methyl-piperazin-1-yl)-2-nitro-phenyl]-amine] | 0.0803
7 | Cc1ccccc1OCCNc1cc(N2CCN(C)CC2)ccc1[N+](=O)[O-] [Example 55, [5-(4-Methyl-piperazin-1-yl)-2-nitro-phenyl]-(2-o-tolyloxy-ethyl)-amine] | 0.0261
8 | O=[N+]([O-])c1ccc(N2CCNCC2)cc1N1CCN(Cc2ccccc2)CC1 [Example 27, 1-Benzyl-4-(2-nitro-5-piperazin-1-yl-phenyl)-piperazine] | 3.78
9 | CN1CCN(c2ccc([N+](=O)[O-])c(Oc3ccccc3)c2)CC1 [Example 7, 1-Methyl-4-(4-nitro-3-phenoxy-phenyl)-piperazine] | 0.0266
10 | O=[N+]([O-])c1ccc(N2CCNCC2)cc1NCc1ccccc1 [Example 22, Benzyl-(2-nitro-5-piperazin-1-yl-phenyl)-amine] | 0.0275
11 | COc1ccc(OCCNc2cc(N3CCN(C)CC3)ccc2[N+](=O)[O-])cc1 [Example 46, [2-(4-Methoxy-phenoxy)-ethyl]-[5-(4-methyl-piperazin-1-yl)-2-nitro-phenyl]-amine] | 0.245
12 | O=[N+]([O-])c1ccc(N2CCNCC2)cc1NCc1ccco1 [Example 57, Furan-2-ylmethyl-(2-nitro-5-piperazin-1-yl-phenyl)-amine] | 0.025
13 | CN1CCN(c2ccc([N+](=O)[O-])c(-n3nc(-c4ccccc4)c4ccccc4c3=O)c2)CC1 [Example 31, 2-[5-(4-Methyl-piperazin-1-yl)-2-nitro-phenyl]-4-phenyl-2H-phthalazin-1-one] | 1.71
14 | O=[N+]([O-])c1ccc(N2CCN(Cc3ccccc3)CC2)cc1NCc1ccccc1 [Example 53, Benzyl-[5-(4-benzyl-piperazin-1-yl)-2-nitro-phenyl]-amine] | 0.0343
15 | CC1CN(c2ccc([N+](=O)[O-])c(NCCOc3ccc(Cl)cc3)c2)CC(C)N1 (stereo not drawn) [Example 17, [2-(4-Chloro-phenoxy)-ethyl]-[5-(3,5-dimethyl-piperazin-1-yl)-2-nitro-phenyl]-amine] | 5
16 | CN1CCN(c2ccc([N+](=O)[O-])c(Nn3cccc3)c2)CC1 [Example 5, [5-(4-Methyl-piperazin-1-yl)-2-nitro-phenyl]-pyrrol-1-yl-amine] | 0.481
17 | CN1CCN(c2ccc([N+](=O)[O-])c(NCc3ccc(F)cc3)c2)CC1 [Example 2, (4-Fluoro-benzyl)-[5-(4-methyl-piperazin-1-yl)-2-nitro-phenyl]-amine] | 0.172
18 | CN1CCN(c2ccc([N+](=O)[O-])c(NCCc3ccccc3)c2)CC1 [Example 23, [5-(4-Methyl-piperazin-1-yl)-2-nitro-phenyl]-phenethyl-amine] | 0.119
19 | CC(Nc1cc(N2CCN(C)CC2)ccc1[N+](=O)[O-])c1ccccc1 (stereo not drawn) [Example 59, [5-(4-Methyl-piperazin-1-yl)-2-nitro-phenyl]-(1-phenyl-ethyl)-amine] | 0.0119
20 | CN1CCN(c2ccc([N+](=O)[O-])c(-n3nc(-c4ccccc4)c4ccccc4c3=O)c2)CC1 [Example 16, 2-[5-(4-Methyl-piperazin-1-yl)-2-nitro-phenyl]-4-phenyl-2H-phthalazin-1-one] | 0.732
21 | O=[N+]([O-])c1ccc(N2CCN(CCO)CC2)cc1NCCc1ccccc1 [Example 12, 2-[4-(4-Nitro-3-phenethylamino-phenyl)-piperazin-1-yl]-ethanol] | 6.33
22 | Cc1cc(C)n(-c2cc(N3CCNCC3)ccc2[N+](=O)[O-])n1 [Example 32, 1-[3-(3,5-Dimethyl-pyrazol-1-yl)-4-nitro-phenyl]-piperazine] | 0.482
23 | O=[N+]([O-])c1ccc(N2CCNCC2)cc1NCCOc1ccc(Cl)cc1 [Example 58, [2-(4-Chloro-phenoxy)-ethyl]-(2-nitro-5-piperazin-1-yl-phenyl)-amine] | 0.29
24 | O=[N+]([O-])c1ccc(N2CCNCC2)cc1NCc1ccc(Cl)cc1 [Example 52, (4-Chloro-benzyl)-(2-nitro-5-piperazin-1-yl-phenyl)-amine] | 0.0083
25 | O=[N+]([O-])c1ccc(N2CCNCC2)cc1NCCOc1ccccc1 [Example 30, (2-Nitro-5-piperazin-1-yl-phenyl)-(2-phenoxy-ethyl)-amine] | 0.114
26 | O=[N+]([O-])c1ccc(N2CCNCC2)cc1NCCc1ccccc1 [Example 33, (2-Nitro-5-piperazin-1-yl-phenyl)-phenethyl-amine] | 0.0331
27 | CN1CCN(c2ccc([N+](=O)[O-])c(NCc3ccco3)c2)CC1 [Example 11, Furan-2-ylmethyl-[5-(4-methyl-piperazin-1-yl)-2-nitro-phenyl]-amine] | 0.0612
28 | CN1CCN(c2ccc([N+](=O)[O-])c(NCc3cccnc3)c2)CC1 [Example 24, [5-(4-Methyl-piperazin-1-yl)-2-nitro-phenyl]-pyridin-3-ylmethyl-amine] | 1.27
29 | Cc1ccccc1OCCNc1cc(N2CCNCC2)ccc1[N+](=O)[O-] [Example 13, (2-Nitro-5-piperazin-1-yl-phenyl)-(2-o-tolyloxy-ethyl)-amine] | 0.163
30 | O=[N+]([O-])c1ccc(N2CCNCC2)cc1NCc1cccnc1 [Example 26, (2-Nitro-5-piperazin-1-yl-phenyl)-pyridin-3-ylmethyl-amine] | 1.51
